How the values were obtained:
[1] = Cytostatic activity (test not described further); details: result in words, no test conditions given
[2] = test system: Tumorart P 388 (Leukämie); experiment: P 388 leukemia survival test in mice (NCI protocol 1200), T/C; assay type: in vivo, Mäusen; details: nine doses, P 388 set i.p. with 10^6 cells/mouse, survival vs untreated controls
Experimental: Die T/C-Werte dieser Verbindung bei ihrer Austestung am TumorP 388 (Leukämie) unter Standardprüfbedingungen betragen 166 % (100 mg/kg) bzw. 165 % (50 mg/kg).
Die nachfolgenden Versuche wurden durchgeführt nach Testvorschriften des National Cancer Intitute Bethesda; Maryland 200014, veröffentlicht in "Cancer Chemotherapy Reports" Part 3, September 1972, Vol. 3, Nr. 2. Als Wirksubstanz wurde das Di-(2-hydroxy-3-brompropan)-glucamin des Beispiels 1 verwendet. Die Substanz wurde als wäßrige 1-%ige Injektionslösung unmittelbar vor der Applikation frisch hergestellt.
Bei Mäusen wurde gemäß Protokoll 1200 (Seite 91.c.) die Tumorart P 388 (Leukämie) i.p. mit 10^6 Zellen/Maus gesetzt. Die mittlere Überlebensdauer der nicht mit dem erfindungsgemäßen Wirkstoff behandelten Tiere wurde bestimmt.
Einer weiteren Gruppe von Versuchstieren wird der Wirkstoff appliziert. Der Wirkstoff wird dabei in neun Gaben in unterschiedlichen Versuchsreihen einmal zu je 100 mg/kg und in einer weiteren Versuchsreihe zu je 50 mg/kg verabreicht. In allen Fällen wird eine signifikante Verlängerungs der Lebensdauer der behandelten Testtiere gegenüber der Kontrollgruppe der nicht behandelten Tiere erzielt.

| Compound | cytostatische Wirksamkeit [1] | Verlängerungsrate T/C ([2]; 50 mg/kg per dose) [%] | Verlängerungsrate T/C ([2]; 100 mg/kg per dose) [%] |
| --- | --- | --- | --- |
| CN(CC(O)CBr)C[C@H](O)[C@@H](O)[C@H](O)[C@H](O)CO (some centres unmarked) [N-Methyl-N-(2-hydroxy-3-brom-propyl)-glucamin] | unwirksam | – | – |
| CN(CC(O)CCl)C[C@H](O)[C@@H](O)[C@H](O)[C@H](O)CO (some centres unmarked) [entsprechende 3-Chlorverbindung] | unwirksam | – | – |
| Di-(2-hydroxy-3-brompropan)-glucamin [Beispiel 1] | cytostatisch aktiv | 165 | 166 |

— patent EP0035728A1, “Cytostatically active amino-polyols, medicaments containing these compounds and their use” (Henkel Kommanditgesellschaft auf Aktien, priority 1980, dated 1981)
